According to patent US10883962B2, “Electrical double layer in nanopores for detection and identification of molecules and submolecular units” (University of Kentucky Research Foundation, priority 2017, dated 2021):

Key:
[1] = Expected valence charge of analytes and ions based on pKas; type: physicochemical; details: for Expected valence charge: maximal negative charge, intraluminal pH of 12; for Valence charge level (Zanalyte): used in the empirical model, Example 2
From the text: In order to investigate any dependency of the signal on the analyte concentration, the concentrations of the molecular analytes were varied from 10^−8 to 10^−2 M in 10^−5 M NaF solution. Because NaF dissociates into Na^+ and F^−, and F^− will form HF in solution (due to HF being a weak acid), it was important to ensure that the concentration of HF was negligible compared with the concentration of the molecular analytes and supporting electrolytes. […] The specific analytes used in this study were chosen to have distinct acid dissociation constants (pKas) and to be relatively similar in size (Table 2). […] NaCl was chosen as the supporting electrolyte in this pH experiment in order to maintain a homogeneous ion population with the titration reagents, NaOH and HCl. It was desirable to avoid using HF as a titration reagent, due to the risk of damaging the nanopore device and because HF is a weak acid. In low pH conditions, the concentration of undissociated HF would increase to non-negligible levels. Since HCl and NaOH are a strong acid and base, respectively, there was no risk of producing undissociated molecules at low or high pHs. […] In order to characterize this energetic balance, we estimate the pH of the intraluminal environment by considering the variable valence charges and pKas of the analytes. Table 3 lists the expected charge on each analyte at different pHs based on the pKas of the individual analytes.

[2] = Density and estimated spherical radius of analytes and supporting ions; type: physicochemical
[3] = cited from earlier work
[4] = 21° C.; cited from earlier work
[5] = Saturation of NaF solution; type: physicochemical; details: in this study
From the text: The SNR is consistent for electrolyte concentrations <1 M, and the sudden decrease in SNR at 1 M NaF is indicative of a saturation effect, where saturation of the solution would preclude significant changes to the electrochemical potential of the EDL. By considering the charge density and steady state double layer potential as response curves, we can explain the loss of signal quality at high concentrations of supporting electrolyte (FIG. 3(c)). The increase in steady-state potential and charge density (calculated from the model) slows at high concentrations, and a similar effect occurs experimentally to the steady state double layer potential. The decrease in slope of the response curves at high concentration will result in smaller signals from the analytes, resulting in the decrease in SNR observed at high concentrations of supporting electrolyte. Since the measured steady state potential and solution saturation follow similar curves, this may be a useful method for quantitatively characterizing solutions, as well as a method of characterizing individual analyte molecules.

Structure (SMILES)	Expected valence charge [1]	Valence charge at pH ([1]; pH 1)	Valence charge at pH ([1]; pH 2, 3)	Valence charge at pH ([1]; pH 4)	Valence charge at pH ([1]; pH 5, 6)	Valence charge at pH ([1]; pH 7, 8, 9, 10)	Valence charge at pH ([1]; pH 11)	Valence charge at pH ([1]; pH 12)	Valence charge level (Zanalyte) [1]	Estimated spherical radius [2] [nm]	pKa 1 [3]	pKa 2 [3]	Saturation of NaF [4] [M]	Saturated NaF solution reached [5]
O=C(O)CC(O)(CC(=O)O)C(=O)O [Citric Acid]	−3	0	0	−1	−2	−3	−3	−3	−3	0.37				
Cl [Cl−]										0.21				
F [F−]	−1									0.17				
Oc1ccc(O)cc1 [Hydroquinone]	−1	0	0	0	0	0	−1	−1	−1	0.32	10.35			
[K+] [K^+]	1									0.26				
O=C1O[C@H]([C@@H](O)CO)C(O)=C1O [L-Ascorbic acid]	−2	0	0	0	−1	−1	−1	−2	−2	0.35		11.7		
[F-].[Na+] [NaF]													0.96	approximately 1 M
[Na+] [Na^+]	1									0.21				
O=C(O)C(=O)O [Oxalic acid]	−1	0	−1	−1	−1	−1	−1	−1	−1	0.27				
